Results: ChEMBL document CHEMBL4619758, “Discovery of 3-({5-Chloro-1-[3-(methylsulfonyl)propyl]-1H-indol-2-yl}methyl)-1-(2,2,2-trifluoroethyl)-1,3-dihydro-2H-imidazo[4,5-c]pyridin-2-one (JNJ-53718678), a Potent and Orally Bioavailable Fusion Inhibitor of Respiratory Syncytial Virus” (J Med Chem, 2020)
≈ marks a conversion by molar mass, not a printed value.

Tests used:
[1] = Cytotoxicity against human HeLa cells assessed as reduction in cell viability after 3 days by ATPlite assay
[2] = Metabolic stability in human liver microsomes assessed as compound metabolized after 15 mins; type: ADME, Microsome; conditions: read-out: Drug metabolism
[3] = biological target: Cytochrome P450 3A4 (Homo sapiens, UniProt P08684); experiment: Time-dependent inhibition of CYP3A4 in human liver microsomes using testosterone as substrate; type: ADME
[4] = Aqueous solubility of the compound; type: physicochemical; conditions: buffer
[5] = Clearance in Sprague-Dawley rat at 2 mg/kg, iv administered as single dose; type: ADME, organism-based; conditions: in vivo
[6] = Volume of distribution at steady state in Sprague-Dawley rat at 2 mg/kg, iv administered as single dose; type: ADME, organism-based; conditions: in vivo, read-out: Vdss
[7] = Cmax in Sprague-Dawley rat at 10 mg/kg, po administered as single dose; type: ADME, organism-based; parameters: dose 10 mg/kg, route oral; conditions: in vivo
[8] = AUC in Sprague-Dawley rat at 10 mg/kg, po administered as single dose; type: ADME, organism-based; conditions: in vivo
[9] = Absolute oral bioavailability in Sprague-Dawley rat at 10 mg/kg administered as single dose; type: ADME, organism-based; conditions: in vivo
[10] = Ratio of AUC (0 to last) in lung to plasma of Sprague-Dawley rat at 10 mg/kg, po administered as single dose; type: ADME, organism-based; conditions: lung and plasma, read-out: Ratio AUC
[11] = Metabolic stability in rat liver microsomes assessed as compound metabolized after 15 mins; type: ADME, Microsome; conditions: read-out: Drug metabolism
[12] = Protein binding in human plasma assessed as unbound fraction; type: ADME, cell-free
[13] = Clearance in Sprague-Dawley rat at 2 mg/kg, iv administered as single dose relative to liver blood flow; type: ADME, organism-based; conditions: in vivo
[14] = Metabolic stability in dog liver microsomes assessed as compound metabolized after 15 mins; type: ADME, Canis lupus familiaris, Microsome; conditions: read-out: Drug metabolism
[15] = Clearance in Sprague-Dawley rat plasma at 2.5 mg/kg, iv; type: ADME, organism-based
[16] = Ratio of AUC (0 to last) in lung to plasma of Sprague-Dawley rat at 2.5 mg/kg, iv or 10 mg/kg, po; type: ADME, organism-based; conditions: lung and plasma, read-out: Ratio AUC
[17] = Oral bioavailability in Sprague-Dawley rat at 10 mg/kg; type: ADME, organism-based; conditions: in vivo
[18] = Clearance in dog plasma at 1 mg/kg, iv; type: ADME, organism-based, Canis lupus familiaris
[19] = Oral bioavailability in dog at 5 mg/kg; type: ADME, organism-based, Canis lupus familiaris; conditions: in vivo
[20] = system: Respiratory syncytial virus; experiment: Antiviral activity against RSV Long infected in po dosed cotton rat model assessed as reduction in viral titer in broncho alveolar lavage fluid pretreated for 1 hr followed by viral infection measured after 4 days by plaque reduction assay; type: functional, organism-based; conditions: for EC50: human respiratory syncytial virus
[21] = system: Respiratory syncytial virus; experiment: Antiviral activity against RSV Long infected in po dosed cotton rat model assessed as reduction in viral titer in lung lavage fluid pretreated for 1 hr followed by viral infection measured after 4 days by plaque reduction assay; type: functional, organism-based; conditions: for EC50: human respiratory syncytial virus
[22] = Clearance in dog plasma at 1 mg/kg, iv relative to liver blood flow; type: ADME, organism-based, Canis lupus familiaris; conditions: in vivo
[23] = biological target: CYP3A4 (Homo sapiens, UniProt P08684); experiment: Time-dependent inhibition of CYP3A4 in human liver microsomes assessed as ratio of IC50 in presence and absence of NADPH using testosterone as substrate; type: ADME; conditions: probe testosterone, read-out: Ratio IC50
Sequence of CYP3A4 (P08684 whole entry): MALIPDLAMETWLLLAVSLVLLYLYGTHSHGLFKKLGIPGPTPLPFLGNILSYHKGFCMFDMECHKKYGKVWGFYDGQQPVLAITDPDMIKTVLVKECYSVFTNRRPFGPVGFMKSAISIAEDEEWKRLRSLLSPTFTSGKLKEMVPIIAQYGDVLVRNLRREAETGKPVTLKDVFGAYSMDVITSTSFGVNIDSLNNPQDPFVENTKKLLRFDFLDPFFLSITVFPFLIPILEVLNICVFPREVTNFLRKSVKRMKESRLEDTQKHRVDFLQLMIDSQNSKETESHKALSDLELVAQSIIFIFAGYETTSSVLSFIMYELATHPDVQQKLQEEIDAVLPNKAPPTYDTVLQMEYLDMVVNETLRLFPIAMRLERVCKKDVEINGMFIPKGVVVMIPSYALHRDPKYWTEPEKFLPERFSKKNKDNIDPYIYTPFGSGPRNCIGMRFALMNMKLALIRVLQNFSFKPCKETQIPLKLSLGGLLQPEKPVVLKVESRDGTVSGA

Sequence of Cytochrome P450 3A4 (P08684 whole entry): as above

CC1(n2c(=O)n(Cc3cc4cc(Cl)ccc4n3CCCS(C)(=O)=O)c3cnccc32)CC1
CC50 at 72 h [1]: > 50 µM
metabolised at 0.25 h [2]: 29%
TDI [3]: Not Active

CS(=O)(=O)c1ccc(-n2c(=O)n(Cc3cc4cc(Cl)ccc4n3CCCC#N)c3cnccc32)cc1
CC50 at 72 h [1]: > 50 µM
metabolised at 0.25 h [2]: 9%
solubility [4]: Insoluble

CS(=O)(=O)CCCn1c(Cn2c(=O)[nH]c3ccncc32)cc2cc(Cl)ccc21
CC50 at 72 h [1]: > 50 µM
metabolised at 0.25 h [2]: 9%
TDI [3]: Not Active

O=c1n(Cc2cc3cnccc3n2CCCC(F)(F)F)c2cnccc2n1C1CC1
CC50 at 72 h [1]: > 50 µM
metabolised at 0.25 h [2]: 21%
clearance [5]: 75 mL/min/kg
Vd [6]: 3.3 L/kg
Cmax [7]: 532 ng/mL
AUC [8]: 545 ng·h/mL
bioavailability [9]: 28%
Kp [10]: 11
metabolised at 0.25 h [11]: 80%
fraction unbound [12]: 0.472
CL [13]: > 100%

COc1ccc(-n2c(=O)n(Cc3cc4cc(Cl)ccc4n3CCCC#N)c3cnccc32)cc1
CC50 at 72 h [1]: > 50 µM
metabolised at 0.25 h [2]: 20%
metabolised at 0.25 h [11]: 40%
metabolised at 0.25 h [14]: 96%
clearance [15]: 16.2 mL/min/kg
Kp [16]: 1.3
bioavailability [17]: 86%
clearance [18]: 24.8 mL/min/kg
bioavailability [19]: 9%
fraction unbound [12]: 0.005
Activity [20]: Dose-dependent effect
EC50 [20]: 0.499 µg/mL (≈ 1.06 µM)
Activity [21]: Dose-dependent effect
EC50 [21]: 0.121 µg/mL (≈ 0.256 µM)
CL [22]: 90%

CC(C)n1c(=O)n(Cc2cc3cc(Cl)ccc3n2CCCS(C)(=O)=O)c2cnccc21
CC50 at 72 h [1]: > 50 µM
metabolised at 0.25 h [2]: 97%
TDI [3]: Not Active

CS(=O)(=O)CCCn1c(Cn2c(=O)n(CC(F)(F)F)c3ccncc32)cc2cc(Cl)ccc21 [RILEMATOVIR]
CC50 at 72 h [1]: > 50 µM
metabolised at 0.25 h [2]: 1%
metabolised at 0.25 h [11]: 60%
metabolised at 0.25 h [14]: 28%
clearance [15]: 65 mL/min/kg
Kp [16]: 3.5
bioavailability [17]: 42%
clearance [18]: 8.5 mL/min/kg
fraction unbound [12]: 0.06
Activity [20]: Dose-dependent effect
EC50 [20]: 0.075 µg/mL (≈ 0.15 µM)
Activity [21]: Dose-dependent effect
EC50 [21]: 0.081 µg/mL (≈ 0.162 µM)
TDI [3]: Not Active

O=c1n(Cc2nc3nc(Cl)ccc3n2CCCC(F)(F)F)c2cnccc2n1C1CC1
CC50 at 72 h [1]: > 50 µM
metabolised at 0.25 h [2]: 0%
clearance [5]: 23.3 mL/min/kg
Vd [6]: 0.82 L/kg
Cmax [7]: 1690 ng/mL
AUC [8]: 3370 ng·h/mL
bioavailability [9]: 46%
Kp [10]: 0.4
metabolised at 0.25 h [11]: 80%
fraction unbound [12]: 0.3

COc1ccc(-n2c(=O)n(Cc3cc4cc(Cl)ccc4n3CCCC#N)c3cnccc32)cc1OC
CC50 at 72 h [1]: > 50 µM
metabolised at 0.25 h [2]: 19%
metabolised at 0.25 h [11]: 74%
metabolised at 0.25 h [14]: 56%
clearance [15]: 31.7 mL/min/kg
Kp [16]: 2.5
bioavailability [17]: 32%
clearance [18]: 14.3 mL/min/kg
bioavailability [19]: 26%
fraction unbound [12]: 0.008
Activity [20]: Dose-dependent effect
EC50 [20]: 0.18 µg/mL (≈ 0.359 µM)
Activity [21]: Dose-dependent effect
EC50 [21]: 0.157 µg/mL (≈ 0.313 µM)
CL [22]: 50%

CS(=O)(=O)CCCn1c(Cn2c(=O)n(C3CC3)c3ccncc32)cc2cc(Cl)ccc21
CC50 at 72 h [1]: > 50 µM
metabolised at 0.25 h [2]: 18%
IC50 shift [23]: 18

N#CCCCn1c(Cn2c(=O)n(C3CC3)c3ccncc32)cc2cc(Cl)ccc21
CC50 at 72 h [1]: > 50 µM
metabolised at 0.25 h [2]: 17%
clearance [5]: 36.7 mL/min/kg
Vd [6]: 1.5 L/kg
Cmax [7]: 1230 ng/mL
AUC [8]: 3300 ng·h/mL
bioavailability [9]: 73%
Kp [10]: 1.6
metabolised at 0.25 h [11]: 80%
fraction unbound [12]: 0.036

CS(=O)(=O)CCCn1c(Cn2c(=O)n(CC3CC3)c3ccncc32)cc2cc(Cl)ccc21
CC50 at 72 h [1]: > 50 µM
metabolised at 0.25 h [2]: 98%
TDI [3]: Not Active
